For one assay, the target named is T1, hGALR2 (Homo sapiens, UniProt O43603).
T1 construct: expressed in transfected cells
T1 sequence (O43603 1-387): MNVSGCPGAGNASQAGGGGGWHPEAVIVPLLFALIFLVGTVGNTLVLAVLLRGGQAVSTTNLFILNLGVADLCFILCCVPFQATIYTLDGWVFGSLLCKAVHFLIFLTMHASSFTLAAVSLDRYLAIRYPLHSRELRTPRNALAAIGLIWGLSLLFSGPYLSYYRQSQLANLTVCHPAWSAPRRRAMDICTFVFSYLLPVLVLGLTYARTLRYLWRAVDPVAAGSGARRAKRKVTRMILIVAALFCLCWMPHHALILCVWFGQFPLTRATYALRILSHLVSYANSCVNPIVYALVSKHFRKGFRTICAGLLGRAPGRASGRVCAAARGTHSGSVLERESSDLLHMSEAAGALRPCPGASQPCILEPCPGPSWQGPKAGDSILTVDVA
Put plainly: SRE luciferase activity in mGqi-hGALR2-SRE Luc expressing cell lines. In kind it is cell-based. The settings on record: read-out: logEC50 (mean ± SEM) (converted). The procedure: FIG. 11 provides a comparison of the in vitro potency of three different GALR2 agonist peptides with certain amino acid substitutions at the 4th amino acid position. Specifically, the GALR2 agonist peptides were as follows: (1) nWTaNAALYLFGPq-NH2 (D-alanine substitution; triangle), (2) PEG2-NWTeNAALYLFGPq-NH2 (D-glutamic acid; filled circle), and (3) PEG2-NWTrNAALYLFGPq-NH2 (D-arginine; open circle). Potency of the GALR2 agonists was assessed by measuring SRE luciferase activity in mGqi-hGALR2-SRE Luc expressing cell lines treated with the peptides.
In addition to solubility (described above in Example 8), the in vitro potency of the three GALR2 agonist peptides described in Example 7 was next assessed. Specifically, mGqi-hGALR2-SRE Luc expressing cell lines were treated with the different peptides and SRE luciferase activity was measured (as a measure of intracellular activity mediated by the GALR2 agonist peptides).

A further assay has as its system OIC mice. Put plainly: Colonic transit time (latency to glass bead expulsion) in opioid-induced constipation (OIC) mouse model. It counts as in vivo. Conditions: 10 mg/kg intraperitoneally, single administration at day 7, positive control (FIG. 5). As to the method:
FIG. 4 provides the overall experimental design in assessing the effects of GALR2 agonists described herein in an opioid-induced constipation (OIC) mouse model. The upward arrows (seven total) represent the daily administration of the GALR2 agonist. The GALR2 agonist that was administered to the relevant groups was pegylated. Control animals received either a vehicle control (negative control) or bisacodyl (positive control). Animals that received a single administration (i.e., at day 7) of naloxone methiodide were also used as a positive control. At 10 minutes post last administration, each of the animals received an administration of morphine (3 mg/kg; subcutaneously). […] Colonic transit time was assessed by measuring the latency to glass bead expulsion by the animals.
FIGS. 9A and 9B show the effect of dosing schedule and administration route on GALR2 agonist-mediated regulation of colonic transit time in OIC mice. […] Colonic transit time was assessed by measuring the latency to glass bead expulsion by the animals. […]
To assess whether the GALR2 agonists described herein could be useful in treating opioid-induced constipation, an OIC mouse model was used. […] Then, a glass bead was rectally inserted, and colonic transit time was assessed by measuring the latency to glass bead expulsion by the animals. […]

Assay [1] deals with T2, human galanin receptor type 2 (GALR2) (human, UniProt O43603 1-387).
T2 sequence: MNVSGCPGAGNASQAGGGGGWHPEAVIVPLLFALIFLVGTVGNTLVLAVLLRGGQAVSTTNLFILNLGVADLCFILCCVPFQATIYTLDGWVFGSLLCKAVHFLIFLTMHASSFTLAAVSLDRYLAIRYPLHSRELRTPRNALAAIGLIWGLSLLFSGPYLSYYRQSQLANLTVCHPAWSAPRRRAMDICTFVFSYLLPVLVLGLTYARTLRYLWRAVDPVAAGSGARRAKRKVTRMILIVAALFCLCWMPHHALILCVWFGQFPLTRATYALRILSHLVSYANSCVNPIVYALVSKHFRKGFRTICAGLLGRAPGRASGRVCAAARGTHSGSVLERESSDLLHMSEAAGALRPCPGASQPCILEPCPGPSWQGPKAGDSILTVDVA
Put plainly: cell-based or functional assay.

Non-standard residues stand in square brackets, D forms with d. Residues, ends and D or L forms follow the SMILES beside them. Primed or numbered codes have the meaning given here. No end group written: not given here. PEG2′ = not defined here

Turning to `CC(C)C[C@H](NC(=O)[C@H](C)NC(=O)[C@H](C)NC(=O)[C@H](CC(N)=O)NC(=O)[C@@H](C)NC(=O)[C@@H](NC(=O)[C@H](Cc1c[nH]c2ccccc12)NC(=O)[C@H](N)CC(N)=O)[C@@H](C)O)C(=O)N[C@@H](Cc1ccc(O)cc1)C(=O)N[C@@H](CC(C)C)C(=O)N[C@@H](Cc1ccccc1)C(=O)NCC(=O)N1CCC[C@H]1C(=O)N[C@H](CCC(N)=O)C(N)=O` [D-Alanine (SEQ ID NO: 87), nWTaNAALYLFGPq-NH2] (HELM PEPTIDE1{[dN].W.T.[dA].N.A.A.L.Y.L.F.G.P.[dQ].[am]}$$$$V2.0), the EC50 at hGALR2 was 44.7 nM.

In the case of `C=CC[N+]1(C)CC[C@]23c4c5ccc(O)c4O[C@H]2C(=O)CC[C@@]3(O)[C@H]1C5` (stereo partly drawn) [naloxone methiodide, reference compound], in the assay with OIC mice, the colonic transit time entry was “decrease in colonic transit time”.

B1: PEG2-NWTrNAALYLFGPq-NH2 ([PEG-dR4-dQ14]-GALR2 Agonist, SEQ ID NO: 89) (peptide)
peptide: [PEG2′]NWT[dR]NAALYLFGP[dQ]-NH2
B1: the “EC50 fold change against the D-alanine peptide, SRE luciferase activity” value in assay [1] was around 3.5 fold.
